Values quoted from earlier work as cited in patent publication US5807732A, “GDP-L-fucose: β-D-galactoside 2-α-L-fucosyltransferases, DNA sequences encoding the same, method for producing the same and a method of genotyping a person” (priority 1995, dated 1998).
“And” between values parts separate entries of the source, which are not always exact repeats. Identical values can stand only once. Like-named read-outs stand apart in the source and are kept apart here.

T1: H α(1,2)fucosyltransferase (Homo sapiens, UniProt P19526)
T1 sequence (P19526 1-365): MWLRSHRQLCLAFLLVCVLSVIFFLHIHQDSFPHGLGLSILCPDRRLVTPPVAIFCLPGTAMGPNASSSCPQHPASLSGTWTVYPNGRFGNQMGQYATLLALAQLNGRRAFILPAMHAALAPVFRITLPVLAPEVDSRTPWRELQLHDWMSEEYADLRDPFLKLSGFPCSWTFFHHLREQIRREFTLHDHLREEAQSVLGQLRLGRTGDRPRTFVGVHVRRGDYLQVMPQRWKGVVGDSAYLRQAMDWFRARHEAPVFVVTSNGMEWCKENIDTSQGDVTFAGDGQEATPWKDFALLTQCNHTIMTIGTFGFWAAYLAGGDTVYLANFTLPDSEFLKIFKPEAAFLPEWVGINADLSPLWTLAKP


Key:
[1] = tested on: Secretor α(1,2)fucosyltransferase; conditions: read-out: Apparent Km
[2] = target: T1, H α(1,2)fucosyltransferase; conditions: enzyme H; literature values; read-out: Apparent Km
transfected COS-7 cells = conditions: expressed in COS-7 cells
[3] = enzyme Secretor, literature values

| Km [1, 3] | Km [2] | Molecule | also measured |
| --- | --- | --- | --- |
| 108 µM and 123 µM |  | C[C@@H]1O[C@H](OP(=O)(O)OP(=O)(O)OC[C@H]2O[C@@H](n3cnc4c(=O)[nH]c(N)nc43)[C@H](O)[C@@H]2O)[C@@H](O)[C@H](O)[C@@H]1O [GDP-fucose] |  |
|  |  | OC[C@H]1O[C@@H](Oc2ccccc2)[C@H](O)[C@@H](O)[C@H]1O [phenyl-β-D-galactoside] | Km ([1]; human Secretor α(1,2)fucosyltransferase partially purified from human milk): 15100 µM; Km ([1]; human Secretor α(1,2)fucosyltransferase purified from human serum): 11400 µM |
| 1600 µM |  | CC(=O)N[C@H]1[C@H](O[C@H]2[C@@H](O)[C@@H](CO)O[C@@H](O[C@H]3[C@H](O)[C@@H](O)C(O)O[C@@H]3CO)[C@@H]2O)O[C@H](CO)[C@@H](O)[C@@H]1O[C@@H]1O[C@H](CO)[C@H](O)[C@H](O)[C@H]1O (stereo partly drawn) [lacto-N-tetraose] |  |
| 1400 µM | 3500 µM | COC1O[C@H](CO)[C@@H](O)[C@H](O[C@@H]2O[C@H](CO)[C@H](O)[C@H](O)[C@H]2O)[C@H]1NC(C)=O (stereo partly drawn) [lacto-N-biose I (--O--Me)] |  |
| 1000 µM | 2000 µM | CC(=O)N[C@H]1C(O)O[C@H](CO)[C@@H](O)[C@@H]1O[C@@H]1O[C@H](CO)[C@H](O)[C@H](O)[C@H]1O (stereo partly drawn) [lacto-N-biose I] |  |
|  |  | H blood group cDNA-encoded α(1,2)fucosyltransferase: human H blood group (FUT1) α(1,2)fucosyltransferase expressed from cDNA in COS-7 cells (protein, UniProt P19526 1-365, looked up) Galactoside …: MWLRSHRQLCLAFLLVCVLSVIFFLHIHQDSFPHGLGLSILCPDRRLVTPPVAIFCLPGTAMGPNASSSCPQHPASLSGTWTVYPNGRFGNQMGQYATLLALAQLNGRRAFILPAMHAALAPVFRITLPVLAPEVDSRTPWRELQLHDWMSEEYADLRDPFLKLSGFPCSWTFFHHLREQIRREFTLHDHLREEAQSVLGQLRLGRTGDRPRTFVGVHVRRGDYLQVMPQRWKGVVGDSAYLRQAMDWFRARHEAPVFVVTSNGMEWCKENIDTSQGDVTFAGDGQEATPWKDFALLTQCNHTIMTIGTFGFWAAYLAGGDTVYLANFTLPDSEFLKIFKPEAAFLPEWVGINADLSPLWTLAKP | distribution of α(1,2)fucosyltransferase activity between cells and media (transfected COS-7 cells): largely cell-associated |
